Like-named read-outs stand apart in the source and are kept apart here.
Key:
Type in all cases: cell-based
[1] = system: HIV-1 with WT (wild type) RT in P4 cells; test: Anti-HIV assay on P4 cell line, WT RT; conditions: for EC50 / SI (selectivity index = CC50/EC50): P4 cell line, WT RT; for EC50: read-out: EC50 WT
Protocol: For the antiviral and the cytotoxicity assays, the drugs were diluted in complete DMEM medium. In these experiments, drugs were diluted in triplicate wells in a 96-well plate in six, 5 fold serial dilutions.
Two days later, co-cultivation with SupT1 cells (a human T-cell lymphoma cell line) was initiated to facilitate rapid production of progeny virions. Production of virus was measured by using the Innotest HIV Antigen mAb p24 kit (Innogenetics). At the peak of production cultures were harvested and filtered. The virus stocks were stored at −80° C. until used.
Anti-HIV activity and cytotoxicity of the compounds were tested on a P4 cell line. […] The P4 cells were cultured in complete DMEM medium supplemented with 10% fetal bovine serum (FBS), 0.5% of Penicillin/Streptomycin and G418 at 0.5 mg/ml. Exponentially growing cells were trypsinized, centrifuged and split twice weekly at 5.10^4 cells/ml.
The P4 cells are HIV-infectible Hela-CD4 cells that carry the bacterial lacZ gene under the control of the HIV-1 long terminal repeat (LTR). In this cell line, transcription of the LacZ gene is driven by the HIV-1 LTR. […] In other words, in this system, the expression level of the β-galactosidase gene is proportional to the viral replication.
(§1) Briefly, in the anti-HIV assay 100 Ål of P4 cells were plated in 96-well plate at a concentration of 0.4 10^5 cells/ml and incubated at 37° C., 5% CO2. After 48 h, the medium was removed and 100 Ål of the different drugs dilutions were added to the cells. Four hours after the addition of the drugs all cells were infected with equal amount of cell-free virus, corresponding to 100 ng of HIV p24 antigen. After 48 h of incubation at 37° C., 5% CO2, β-galactosidase activity was measured using chlorophenol red-β-D-galactopyranoside assays.
Each assay was performed a minimum of three times. The 50% effective concentration (Ec50) was calculated from each dose response curve using the CurveExpert 1.3 software.

[2] = system: HIV-1 mutant Cys188RT in P4 cells; test: Anti-HIV assay on P4 cells, Cys188RT mutant
Description: (§2) In order to introduce mutation(s) at the level of the pol gene coding for the RT in the pNL4-3 plasmid containing the complete viral genome (Adachi et al., 1986. J. Virol., Vol. 59 p 284-291) we used the “Quick change mutagenesis kit” (Stratagene). The following mutations were separately introduced in pNL4-3: L100I, K103N, V108I, Y181C, Y188C, and the double mutations K103N/V108I. These mutations were chosen because of the resistance that they confer to existing NNRTI. The production procedure of the mutant viral stocks is identical to the one described above.
Anti-HIV activity and cytotoxicity of the compounds were tested on a P4 cell line. The P4 cell line (Clavel & Charneau, 1994. J. Virol., Vol. 68 p 1179-1185) was provided by Dr. François Clavel (Unité de recherche antivirale de l'hôpital Xavier Bichat Paris: Inserm). The P4 cells were cultured in complete DMEM medium supplemented with 10% fetal bovine serum (FBS), 0.5% of Penicillin/Streptomycin and G418 at 0.5 mg/ml. Exponentially growing cells were trypsinized, centrifuged and split twice weekly at 5.10^4 cells/ml.
The P4 cells are HIV-infectible Hela-CD4 cells that carry the bacterial lacZ gene under the control of the HIV-1 long terminal repeat (LTR). In this cell line, transcription of the LacZ gene is driven by the HIV-1 LTR. As such, the cytoplasmic accumulation of β-galactosidase is strictly dependent on the presence of the HIV transactivator Tat produced during the intracellular viral replication (Clavel & Charneau, 1994. J. Virol., Vol. 68, p. 1179-1185). In other words, in this system, the expression level of the β-galactosidase gene is proportional to the viral replication.
as §1
The absorbance was measured on a Benchmark™ Microplate Reader (Biorad) (λ=570 nm) and compared with 12 cell control replicates (no virus or drug added) and 12 virus control wells (no drug added). Each assay was performed a minimum of three times. The 50% effective concentration (Ec50) was calculated from each dose response curve using the CurveExpert 1.3 software. As Nevirapine activity corresponds to its published values (10-100 nM), the data are consistent with other measures of viral replication.

[3] = system: HIV-1 mutant Cys181RT in MT4 cells; test: Anti-HIV assay on MT4 cells, Cys181RT mutant
Description: as §2
Anti-HIV activity of the compounds was tested on MT-4 cell line. The MT-4 cell line (Larder et al. 1989. Sciences, Vol. 243 p 1731) was received from the NIH AIDS Research and Reference Reagent Program. These cells were cultured in RPMI medium supplemented with 10% fetal bovine serum (FBS), and 1% Penicillin/Streptomycin. The cultures were split regularly to keep cells densities between 0.3 to 1.2 10^6 cells/ml.
The MT-4 cells rapidly die upon infection by HIV. In this system there is an inverse correlation between cells survival and the amount of viral replication.
Briefly, in the anti-HIV assay exponentially growing MT-4 cells were infected with HIV-1. 100 μl of infected MT-4 cells were seeded in 96-well plate at a concentration of 0.4 10^5 cells/ml, and 100 μl of the different drugs dilutions were added to the cells. After 4 days of incubation at 37° C., 5% CO2, cells survival was measured using MTS (3-(4-5-dimethylthiazol-2-yl)-5-(−(3-carboxymethoxyphenyl)-2-(4-sulfophenyl)-2H-tetrazolium) assays. This compound is reduced by viable cells in a colored soluble formazan salt.
The absorbance was measured on a Benchmark™ Microplate Reader (Biorad) (λ=490 nm) and compared with 12 cell control replicates (nor virus nor drug added) and 12 virus control wells (no drug added). Each assay was performed a minimum of three times. The 50% effective concentration (EC50) was calculated from each dose response curve using the CurveExpert 1.3 software.

[4] = P4, mutant Cys188RT, read-out: EC50 Cys188RT P4
[5] = Human immunodeficiency virus 1, MT4, read-out: EC50 Cys181RT MT4
[6] = Human immunodeficiency virus 1, read-out: EC50 Cys188RT P4

CCOC(=O)c1c(OC2CC(C)CC(C)C2)c(CC)c(C)[nH]c1=O (single isomer, unassigned) [Z37inv]
antiviral activity compared with Z37A or the mixture of stereoisomers [1]: higher than the activity observed for either Z37A or the mixture of stereoisomers
EC50 [1]: 36 nM
EC50 [2, 4]: 10 nM

O=C1Nc2ccc(Cl)cc2[C@@](C#CC2CC2)(C(F)(F)F)O1 [Efavirenz, reference compound]
EC50 ([1]; Human immunodeficiency virus 1): < 1 nM
EC50 [3, 5]: < 1 nM
EC50 [2, 6]: < 1 nM

Cc1ccnc2c1NC(=O)c1cccnc1N2C1CC1 [Nevirapine, reference compound]
EC50 ([1]; Human immunodeficiency virus 1): 29 nM
SI (selectivity index = CC50/EC50) [1]: 3448
EC50 Cys181RT MT4 ([3]; MT4, mutant Cys181RT): Inactive
EC50 [2, 6]: 1640 nM

CCc1c(C)[nH]c(=O)c(CO)c1OC1CC(C)CC(C)C1 (stereo not shown) [Z45inv]
EC50 [1]: 23 nM
EC50 [2, 4]: 8 nM

CCc1c(C)[nH]c(=O)c([N+](=O)[O-])c1OC1CC(C)CC(C)C1 (stereo not shown) [Z91inv, 3-nitro-5-ethyl-6-methyl-4-[(3,5-dimethylcyclohexyl)oxy]pyridine-2(1H)-one]
EC50 ([1]; Human immunodeficiency virus 1): < 1 nM
SI (selectivity index = CC50/EC50) [1]: >37200
EC50 [3, 5]: 2440 nM
EC50 [2, 6]: < 1 nM

CCc1c(C)[nH]c(=O)c(CSC(C)=O)c1OC1CC(C)CC(C)C1 (stereo not shown) [Z114]
EC50 [1]: 7 nM
EC50 Cys181RT MT4 ([3]; MT4, mutant Cys181RT): Inactive
EC50 [2, 4]: 3 nM

CCc1c(C)[nH]c(=O)c(N(C)C)c1OC1CC(C)CC(C)C1 (stereo not shown) [Z150, 3-(dimethylamino)-5-ethyl-6-methyl-4-[(3,5-dimethylcyclohexyl)oxy]pyridine-2(1H)-one]
EC50 ([1]; Human immunodeficiency virus 1): < 1 nM
SI (selectivity index = CC50/EC50) [1]: >66000
EC50 [3, 5]: 320 nM
EC50 [2, 6]: < 1 nM

CCc1c(C)[nH]c(=O)c(CN=[N+]=[N-])c1OC1CC(C)CC(C)C1 (stereo not shown) [Z153]
EC50 [1]: < 1 nM
EC50 ([3]; MT4, mutant Cys181RT, read-out: EC50 Cys181RT MT4): 780 nM
EC50 [2, 4]: < 1 nM

CCc1c(C)[nH]c(=O)c(C)c1OC1CC(C)CC(C)C1 (stereo not shown) [Z154]
EC50 [1]: < 1 nM
EC50 [2, 4]: < 1 nM
